Results from US10955413B2, “Method for measuring zygomycota and reagent kit for measuring zygomycota” (SEIKAGAKU CORPORATION, priority 2015, dated 2021).

System: anti-chitosan polyclonal antibody (CTSpAb)
Assay: Competitive ELISA with 3-mer to 6-mer CTS oligosaccharide as competitive substance
Format: binding, fowl
Details: CTSpAb diluted 8,000-fold
Description: The Molecular Size of CTS which can be assayed by CTSpAb was determined through a competitive ELISA employing a 3-mer to 6-mer CTS oligosaccharide (product of Seikagaku Corporation) as a competitive substance.
To CTS, 1% (v/v) acetic acid was added so as to adjust the concentration to 2 μg/mL. The thus-prepared solution was added to a plate at 50 μL/well, and the plate was allowed to stand overnight at 4° C. The plate was washed twice with 9.57 mM PBS (pH: 7.5) at 300 μL/well, and then 25% BA/9.57 mM PBS (pH: 7.5) was added thereto at 200 μL/well. The plate was allowed to stand for 1 hour, to thereby fabricate CTS-immobilized plate. The plate was washed repeatedly four times with PBS-T at 300 μL/well. To the plate, a solution prepared by adding 10% BA/PBS-T to the CTS oligosaccharide so as to adjust the concentration to 0.00064 to 10 μg/mL, or 10% BA/PBS-T (CTS oligosaccharide-free) was added to the plate at 100 μL/well. Then, CTSpAb diluted 8,000-fold with 10% BA/PBS-T was added to the plate at 100 μL/well, and the plate was allowed to stand for 1 hour. The plate was washed repeatedly four times with PBS-T at 300 μL/well. Subsequently, a product of peroxidase-labeled anti-fowl IgY (IgG) (H+L) antibody 5,000-fold diluted with 10% BA/PBS-T was added to the plate at 100 μL/well, and the plate was allowed to stand for 1 hour. The plate was washed repeatedly four times with PBS-T at 300 μL/well, and then, TMB reagent was added to the plate at 100 μL/well, and the plate was allowed to stand for 30 minutes. Then, 1 N HCl was added to the plate at 100 μL/well. The absorbance of each well of the plate was measured by means of a well reader MP-96 at a measurement wavelength of 450 nm and a reference wavelength of 630 nm.
As is clear from Table 3, binding of CTSpAb to CTS on the plate was inhibited by 3- to 6-mer CTS oligosaccharide.

[1] = CTS oligosaccharide 0.00064 μg/mL
[2] = CTS oligosaccharide 0.0032 μg/mL
[3] = CTS oligosaccharide 0.016 μg/mL

SMILES | % Inhibition [1] | % Inhibition [2] | % Inhibition [3] | % Inhibition (CTS oligosaccharide 0.08 μg/mL) | % Inhibition (CTS oligosaccharide 0.4 μg/mL) | % Inhibition (CTS oligosaccharide 2 μg/mL) | % Inhibition (CTS oligosaccharide 10 μg/mL)
N[C@H]1[C@H](O[C@H]2[C@H](O)[C@@H](N)[C@H](O[C@H]3[C@H](O)[C@@H](N)C(O)O[C@@H]3CO)O[C@@H]2CO)O[C@H](CO)[C@@H](O)[C@@H]1O (stereo partly drawn) [3-mer] | 6% | 9% | 11% | 16% | 24% | 32% | 44%
N[C@H]1[C@H](O[C@H]2[C@H](O)[C@@H](N)[C@H](O[C@H]3[C@H](O)[C@@H](N)[C@H](O[C@H]4[C@H](O)[C@@H](N)[C@H](O[C@H]5[C@H](O)[C@@H](N)[C@H](O[C@H]6[C@H](O)[C@@H](N)C(O)O[C@@H]6CO)O[C@@H]5CO)O[C@@H]4CO)O[C@@H]3CO)O[C@@H]2CO)O[C@H](CO)[C@@H](O)[C@@H]1O (stereo partly drawn) [6-mer, chitosan hexamer] | 25% | 39% | 51% | 63% | 66% | 68% | 68%
N[C@H]1[C@H](O[C@H]2[C@H](O)[C@@H](N)[C@H](O[C@H]3[C@H](O)[C@@H](N)[C@H](O[C@H]4[C@H](O)[C@@H](N)[C@H](O[C@H]5[C@H](O)[C@@H](N)C(O)O[C@@H]5CO)O[C@@H]4CO)O[C@@H]3CO)O[C@@H]2CO)O[C@H](CO)[C@@H](O)[C@@H]1O (stereo partly drawn) [5-mer] | 28% | 42% | 55% | 65% | 69% | 70% | 70%
